Assay results reported in patent US6090824A, “Therapeutic neurokinin receptor antagonist compounds” (Zeneca Limited, priority 1995, dated 2000).
pKi: −log10 of the molar value.

How the values were obtained:
human NK2 receptor = biological target: T1, human NK2 receptor (Homo sapiens, UniProt P21452); assay: Neurokinin A (NKA) Receptor Binding Assay (Test B); conditions: human NK2 receptor in MEL cells
T1 construct: expressed in transfected cells; host or cells: Mouse Erythroleukemia (MEL) cells
T1 sequence (P21452 1-398): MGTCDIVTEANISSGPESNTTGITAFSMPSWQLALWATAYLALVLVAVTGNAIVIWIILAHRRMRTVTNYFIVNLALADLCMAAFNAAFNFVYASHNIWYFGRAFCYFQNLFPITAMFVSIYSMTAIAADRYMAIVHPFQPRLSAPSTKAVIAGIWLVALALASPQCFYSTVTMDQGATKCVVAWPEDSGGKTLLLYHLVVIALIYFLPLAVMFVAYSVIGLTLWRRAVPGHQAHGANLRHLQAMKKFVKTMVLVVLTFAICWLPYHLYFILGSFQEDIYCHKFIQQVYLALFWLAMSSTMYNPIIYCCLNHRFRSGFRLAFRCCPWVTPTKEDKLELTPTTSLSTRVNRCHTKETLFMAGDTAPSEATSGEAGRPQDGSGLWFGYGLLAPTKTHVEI
Excerpt: Neurokinin A (NKA) Receptor Binding Assay (Test B)
(§1) The selectivity of a Compound for binding at the NK1 and the NK2 receptors may be shown by determining its binding at other receptors using standard assays, for example, one using a tritiated derivative of NKB in a tissue preparation selective for NK3 receptors.

human NK1 receptor = biological target: T2, human NK1 receptor (Homo sapiens, UniProt P25103); assay: SP Receptor Binding Assay (Test A); conditions: human NK1 receptor in MEL cells
T2 construct: expressed in transfected cells; host or cells: Mouse Erythroleukemia (MEL) cells
T2 sequence (P25103 whole entry): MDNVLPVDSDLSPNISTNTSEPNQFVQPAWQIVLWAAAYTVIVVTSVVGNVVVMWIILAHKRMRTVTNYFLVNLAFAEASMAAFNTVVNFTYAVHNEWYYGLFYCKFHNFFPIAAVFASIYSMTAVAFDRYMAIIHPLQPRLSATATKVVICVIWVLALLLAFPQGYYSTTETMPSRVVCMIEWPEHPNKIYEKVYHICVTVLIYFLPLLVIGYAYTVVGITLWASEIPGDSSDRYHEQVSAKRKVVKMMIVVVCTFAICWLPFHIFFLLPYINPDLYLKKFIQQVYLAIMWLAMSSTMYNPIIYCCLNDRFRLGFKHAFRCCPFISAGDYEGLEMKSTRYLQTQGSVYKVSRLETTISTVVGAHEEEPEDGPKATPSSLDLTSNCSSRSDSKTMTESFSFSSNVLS
Excerpt: SP Receptor Binding Assay (Test A)
The human NK1 receptor was isolated and characterized as described in: B. Hopkins, et al. "Isolation and characterization of the human lung NK1 receptor cDNA" Biochem. Biophys. Res. Comm., 1991, 180, 1110-1117; and the NK1 receptor was expressed in Mouse Erythroleukemia (MEL) cells using a procedure similar to that described in Test B below.
as §1

CC(=O)NC1(c2ccccc2)CCN(CCC(OC(=O)NCc2ccccc2)c2ccc(Cl)c(Cl)c2)CC1 (centres unmarked) [Example 1, N-Benzyl-3-(4-acetamido4-phenylpiperidino)-1-(3,4-dichlorophenyl)propyl carbamate] gave a pKi (human NK2 receptor) of 8.17 and a pKi (human NK1 receptor) of 6.79.
